Results on six compounds are retold here after ChEMBL document CHEMBL1782025, “Archazolid A-15-O-β-D-glucopyranoside and iso-archazolid B: potent V-ATPase inhibitory polyketides from the myxobacteria Cystobacter violaceus and Archangium gephyra” (J Nat Prod, 2011).

In assay [1] the target is V-type proton ATPase subunit B (Manduca sexta, UniProt P31401). In words: Inhibition of Manduca sexta V-ATPase V1/Vo holoenzyme activity assessed as inorganic phosphate production pretreated for 5 mins.
In the next assay the test system is L929. In words: Antiproliferative activity against mouse L929 cells assessed as growth inhibition after 5 days by MTT assay. As to conditions: L929, 120 h. The assay is classed as functional. In general terms: Tetrazolium assays rely on reduction of a dye to a coloured formazan, in cell work by metabolically active cells.
Assay [2] can be described thus: Antiproliferative activity against human KB-3-1 cells after 5 days by MTT assay. It is filed as functional. As to conditions: KB 3-1, 120 h.
In the next assay the test system is MCF7. In words: Antiproliferative activity against human MCF7 cells after 5 days by MTT assay. It is filed as functional. As to conditions: MCF7, 120 h.
For another assay, the system named is PC-3. In words: Antiproliferative activity against human PC3 cells after 5 days by MTT assay. The assay is classed as functional. As to conditions: PC-3, 120 h.
The subject of another assay is A-431. In words: Antiproliferative activity against human A431 cells after 5 days by MTT assay. The assay is classed as functional. As to conditions: A-431, 120 h.
In the next assay the test system is SK-OV-3. In words: Antiproliferative activity against human SKOV3 cells after 5 days by MTT assay. It is filed as functional. As to conditions: SK-OV-3, 120 h.
For another assay, the system named is U-937. The experiment in a line: Antiproliferative activity against human U937 cells after 5 days by MTT assay. The assay is classed as functional. As to conditions: U-937, 120 h.

Chain of V-type proton ATPase subunit B (P31401 whole entry): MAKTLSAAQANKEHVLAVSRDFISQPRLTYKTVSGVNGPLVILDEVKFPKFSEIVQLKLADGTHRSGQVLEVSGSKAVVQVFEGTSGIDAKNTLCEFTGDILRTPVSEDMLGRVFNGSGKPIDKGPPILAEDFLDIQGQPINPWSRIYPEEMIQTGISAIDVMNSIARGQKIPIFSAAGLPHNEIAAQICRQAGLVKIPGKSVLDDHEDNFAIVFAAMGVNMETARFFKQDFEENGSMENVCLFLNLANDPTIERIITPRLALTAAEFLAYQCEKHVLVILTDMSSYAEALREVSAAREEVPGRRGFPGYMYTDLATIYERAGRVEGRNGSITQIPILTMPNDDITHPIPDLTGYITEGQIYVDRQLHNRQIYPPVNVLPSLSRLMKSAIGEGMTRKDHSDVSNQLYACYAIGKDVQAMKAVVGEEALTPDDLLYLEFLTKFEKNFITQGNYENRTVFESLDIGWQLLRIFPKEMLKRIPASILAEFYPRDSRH

Consider `CNC(=O)O[C@@H](CC(C)C)c1nc([C@H]2OC(=O)/C(C)=C/C/C(C)=C/[C@@H](O)[C@@H](C)\C=C(C)/C=C(C)\C=C\[C@@H](O)[C@H](C)[C@H](OC)/C(C)=C/C=C/[C@@H]2C)cs1` [ARCHAZOLID A], for which the IC50 in assay [1] was 0.6 nmol/mg. The concentration for 50% growth inhibition (GI50) with L929 stood at 0.81 nM.

On to `CNC(=O)O[C@@H](CC(C)C)c1nc([C@H]2OC(=O)/C=C/C/C(C)=C/[C@@H](O)[C@@H](C)\C=C(C)/C=C(C)\C=C\[C@@H](O)[C@H](C)[C@H](OC)/C(C)=C/C=C/[C@@H]2C)cs1` [ARCHAZOLID B], for which the IC50 in assay [1] is on record as 0.6 nmol/mg. In addition, the 50% growth inhibitory concentration (GI50) in the assay on L929 is 1.1 nM.

As for `CNC(=O)O[C@@H](CC(C)C)c1nc([C@H]2OC(=O)/C(C)=C/C/C(C)=C/[C@@H](O[C@@H]3O[C@H](CO)[C@@H](O)[C@H](O)[C@H]3O)[C@@H](C)\C=C(C)/C=C(C)\C=C\[C@@H](O)[C@H](C)[C@H](OC)/C(C)=C/C=C/[C@@H]2C)cs1` [ARCHAZOLID C], in assay [1], the IC50 amounted to 210 nmol/mg. In addition, in the assay with L929, the 50% growth inhibitory concentration (GI50) is 1600 nM.

With `CNC(=O)O[C@@H](CC(C)C)c1nc([C@H]2OC(=O)/C(C)=C/C/C(C)=C/[C@@H](O[C@@H]3O[C@H](CO)[C@@H](O)[C@H](O)[C@H]3O)[C@@H](C)\C=C(CO)/C=C(C)\C=C\[C@@H](O)[C@H](C)[C@H](OC)/C(C)=C/C=C/[C@@H]2C)cs1` [ARCHAZOLID D], in assay [1], the IC50 is 1200 nmol/mg. Also, in the assay on L929, the GI50 was 330 nM.

For the compound `CNC(=O)O[C@@H](CC(C)C)c1nc([C@H]2OC(=O)/C(C)=C/C/C(C)=C/[C@@H](O)[C@@H](C)\C=C(C)/C=C(C)\C=C\[C@@H](O[C@@H]3O[C@H](CO)[C@@H](O)[C@H](O)[C@H]3O)[C@H](C)[C@H](OC)/C(C)=C/C=C/[C@@H]2C)cs1` [ARCHAZOLID E], the GI50 in the assay on L929 is 510 nM.

In the case of `CNC(=O)O[C@@H](CC(C)C)c1nc([C@H]2OC(=O)C/C=C/C(C)=C/[C@@H](O)[C@@H](C)\C=C(C)/C=C(C)\C=C\[C@@H](O)[C@H](C)[C@H](OC)/C(C)=C/C=C/[C@@H]2C)cs1` [ARCHAZOLID F], the IC50 in assay [1] was determined as 0.7 nmol/mg. Also, the GI50 was determined as 0.042 nM in assay [2]; 0.131 nM in the assay with MCF7; 0.11 nM in the assay with L929; 0.053 nM in the assay on PC-3; 0.111 nM in the assay with A-431; 0.043 nM in the assay on SK-OV-3. Further, growth with U-937 was halved (GI50) at 0.038 nM.

Broadly, the GI50 is the concentration that inhibits growth by half.
